Where two headings read alike, the source gives them in different places.
Columns and labels:
[1] = target: T1, HEWL fibrils incubated for different lengths of time (Gallus gallus, UniProt P00698); test: Fluorescence enhancement of dyes versus HEWL incubation time; format: binding, hen; conditions: dye 10 μM, HEWL 10 μM monomer basis
T1 construct: Lyophilized HEWL was dissolved at 10 mg/mL in 10 mM pH 3 sodium citrate buffer with 0.1 M NaCl; purchased Sigma-Aldrich; host or cells: hen egg white; fibrillised in house (pH 3, 70 °C, stirred)
Method: Hen egg white lysozyme (HEWL) was used to form fibrillary amyloid aggregates for use in this study. […] For these experiments. HEWL (Sigma-Aldrich) was incubated at 70′C and a concentration of 350 μM in pH 3 sodium citrate buffer (10 mM) with 100 mM NaCl.
A plot of normalized fluorescence enhancement for all four PEs and Thioflavin T with HEWL fibrils incubated for different lengths of time is shown in FIG. 15. PE1+ and PE2+ track amyloid formation in roughly the same way as ThT, showing a sigmoidal curve with onset of a logarithmic growth phase occurring at the same time, around 1 hour of incubation. The plateau phase, as monitored by fluorescence of any of those three PEs or ThT, appeared at 2 hours incubation.
(§1) For studies of fluorescence enhancement vs. protein incubation time, dyes were mixed with protein sample in phosphate buffer (10 mM, pH 7.4) at equal monomer concentration of 10 μM in the wells of a standard 96-well plate. Emission spectra were obtained using top read with a SpectraMax M2e plate-reading spectrophotometer (Molecular Devices, Sunnyvale, CA). Experiments were performed in duplicate and errors are reported as standard deviation. For analysis of bound PE excitation and emission spectra and protein-PE energy transfer, PEs (500 nM) were mixed with protein sample (5 μM, monomer basis) in phosphate buffer and the solution transferred to a quartz, fluorometry cuvette. Spectra were obtained on a PTI QuantaMaster 40 steady state spectrofluorometer (HORIBA Scientific, Edison, NJ).

[2] = Photophysical properties of PEs alone (excitation/emission spectra, fluorescence yield); format: physicochemical; conditions: for λem (PB): phosphate buffer; for λex (PB), high-energy band / λex (PB), low-energy band: phosphate buffer pH 7.4, 10 mM, PE 500 nM
Method: Excitation and emission spectra of PEs in phosphate buffer alone, with monomeric HEWL and with HEWL amyloids (8 h incubated) are shown in FIGS. 18A-H, and relevant photophysical properties are summarized in Table 1. FIGS. 18A-H illustrate excitation (A, B, C, D) and emission (right; E, F, G. H) spectra of PEs (A, E: PE1+; B, F: PE1−; C, G: PE2+; D, H: […]) alone (long dashed line) with HEWL monomers (short dashed line) and with HEWL amyloids (solid line); PE concentration: 500 nM, protein concentration: 5 μM monomer basis/0.25 mg/mL; emission and excitation wavelengths, respectively, were chosen as shown in Table 1 for each sample. A 10:1 molar ratio of protein to PE was used for these experiments. Absorbance spectra were taken, but background light scattering from insoluble amyloid aggregates made them difficult to interpret, so “fluorescence detected absorbance” in the form of excitation spectra was used instead. Normalized excitation and emission spectra, in which peak shifts and lineshape changes of spectra were somewhat easier to visualize, were used. […] PE1+ (FIG. 18E) had no change in wavelength or lineshape of emission spectrum, just a large increase in intensity when mixed with amyloids. The excitation spectra (FIGS. 18A, B, C, D) show a notable bathochromic shift for each PE in solution mixed with amyloid, of 23, 27, 35 and 29 nm for PE1+, PE2+, PE3+ and PE1−, respectively, observing only the low-energy band. The high-energy band, less relevant for imaging purposes, was also bathochromically shifted. […] PE1− had similar excitation spectrum (FIG. 18B) with monomer and amyloid, except for a large intensity difference.
as §1

HEWL amyloid fibrils = target: T2, HEWL amyloid fibrils (Gallus gallus, UniProt P00698); test: Induced circular dichroism of PE-amyloid complexes; format: binding, hen; conditions: PEs 10 μM, HEWL 10 μM monomer basis
T2 construct: Lyophilized HEWL was dissolved at 10 mg/mL in 10 mM pH 3 sodium citrate buffer with 0.1 M NaCl; purchased Sigma-Aldrich; host or cells: hen egg white; fibrillised in house (pH 3, 70 °C, stirred)
Method: Circular dichroism measurements were performed to determine if the intrinsic chirality of the HEWL fibrils was transferred to the PE chromophore by a chiral backbone twist or an “excitonic” chiral supramolecular aggregate. CD spectroscopy (CPEs in PB with HEWL monomer and with HEWL amyloid; performed for (a): PE1+; (b): PE1−; (c): PE2+; (d): PE3+; PEs 10 μM, HEWL 10 μM monomer basis/0.5 mg/mL) indicated induced circular dichroism of PEs when bound to HEWL amyloids. As expected, no PE had optical activity by itself in phosphate buffer solution and none of the PEs had any CD with HEWL monomer, including PE1−. […] PE2+ and PE3+ gave rise to similar CD spectra, with more intense bands in the spectrum for PE3+.
PEs and protein samples were diluted in phosphate buffer, gently vortexed, and read in a 1 mm pathlength quartz CD cuvette using an Aviv 410 CD spectrometer (Aviv Biomedical, Lakewood, NJ), 15 s averaging time. A blank spectrum (PB only) was subtracted from each sample to remove background activity. Error bars are standard deviation over multiple reads of a single sample as reported by the instrument.

HEWL amyloid = target: T3, HEWL amyloid (Gallus gallus, UniProt P00698); test: Binding saturation assay of PEs to HEWL amyloid (Hill fit); parameters: species or system hen; conditions: for Hill coeffi.: PE binding to HEWL amyloid
T3 construct: Lyophilized HEWL was dissolved at 10 mg/mL in 10 mM pH 3 sodium citrate buffer with 0.1 M NaCl; purchased Sigma-Aldrich; host or cells: hen egg white; fibrillised in house (pH 3, 70 °C, stirred)
Method: Next, binding saturation assays were conducted to quantify the affinity of PE-amyloid binding; data and fitted curves were produced and the fitted parameters are summarized in the last two columns of Table 1. Since the linear fibril binding sites could fit many PEs, fits to binding curves were performed to the Hill equation to capture possible binding cooperativity:
[formula] where x is PE concentration (with protein concentration fixed), y is PE fluorescence intensity. […] Fits to the data for the three cationic PEs produced Fmax values close to the observed saturation value, and the other two parameters are reported as calculated. […] Furthermore, the cooperativity of PE binding increased from almost no cooperativity for PE1+, to some positive cooperativity for PE2+, to still more positive cooperativity for PE3+. The quantitative physical meaning of the Hill parameter is not quite clear except in special cases, but in a general way it is possible to conclude that for the cationic PEs, the shortest PE has non-cooperative binding to HEWL amyloid (Michaelis-Menten binding), and the two longer PEs have increasingly positively cooperative binding. […] The effect of PE1− non-specific binding to HEWL monomers precluded accurate determination of a binding constant for PE1−/amyloid interactions such that a quantitative comparison of binding between the cationic and anionic compounds could not be made.
For determination of binding constant of PEs to amyloid aggregates, PEs were mixed with HEWL amyloid in phosphate buffer at a final concentration of 100 nM-5 μM for PEs and 5 μM (monomer basis) for protein. The solutions were then transferred to a quartz fluorometry cuvette and emission measured at the pertinent wavelength. Experiments were performed in duplicate and errors reported as standard deviation. Hill function fits to PE binding curves were calculated in OriginPro 9.

T3 sequence (P00698 19-147): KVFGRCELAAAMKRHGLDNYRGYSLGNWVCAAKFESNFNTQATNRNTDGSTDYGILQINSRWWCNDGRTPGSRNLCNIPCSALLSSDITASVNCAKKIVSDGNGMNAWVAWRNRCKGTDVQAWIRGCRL
T2 sequence (P00698 19-147): as above
T1 sequence (P00698 19-147): as above

SMILES | HEWL incubation time at which the plateau phase of fluorescence enhancement appears [1] | λem (H2O) [2] [nm] | φfl (H2O) [2] | φfl (MeOH) [2] | λem (PB) [2] [nm] | λex (PB), high-energy band [2] [nm] | λex (PB), low-energy band [2] [nm] | induced circular dichroism with HEWL amyloid (HEWL amyloid fibrils) | Kd (HEWL amyloid; HEWL amyloid, Hill fit, read-out: calculated dissociation constant) [nM] | Hill coeffi. (HEWL amyloid) | Kd (HEWL amyloid) [nM]
CCOC(=O)c1ccc(C#Cc2cc(OCC[N+](C)(C)C)c(C#Cc3ccc(C#Cc4cc(OCC[N+](C)(C)C)c(C#Cc5ccc(C#Cc6cc(OCC[N+](C)(C)C)c(C#Cc7ccc(C(=O)OCC)cc7)cc6OCC[N+](C)(C)C)cc5)cc4OCC[N+](C)(C)C)cc3)cc2OCC[N+](C)(C)C)cc1 [PE3+] | up to 3.5 hours | 440 | 0.069 | 0.70 | 464 | 340 | 399 | strong induced CD with a negative Cotton effect | 858 | 1.89 | 
CCOC(=O)c1ccc(C#Cc2cc(OCC[N+](C)(C)C)c(C#Cc3ccc(C#Cc4cc(OCC[N+](C)(C)C)c(C#Cc5ccc(C(=O)OCC)cc5)cc4OCC[N+](C)(C)C)cc3)cc2OCC[N+](C)(C)C)cc1 [PE2+] | 2 h | 448 | 0.039 | 0.71 | 460 | 330 | 399 | strong induced CD with a negative Cotton effect |  | 1.15 | 1150
